# Results from patent publication US20230036854A1, “HETEROCYCLIC SPIRO-COMPOUNDS AS AM2 RECEPTOR INHIBITORS” (THE UNIVERSITY OF SHEFFIELD, priority 2018, published 2023).
# Biological target: T1, AM2 receptor (1321N1 cells transfected with CALCRL+RAMP3) (Homo sapiens, UniProt O60896+Q16602)
# T1 construct: host or cells: 1321N1 cells
# Assay: AM2 receptor inhibition, LANCE cAMP agonist-antagonist competition assay
# Assay type: cell-based
# Settings: inhibition of AM induced cAMP activation, read-out: AM2 D2 protocol: pIC50 (converted)
# Method in brief: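 cAMP was quantified by LANCE TR-FRET after an EC50 challenge with adrenomedullin (15 min, room temperature) in CALCRL+RAMP3-transfected 1321N1 cells (2500/well) that had first been exposed to compound for 30 min. Buffer was pH 7.4 HBSS with HEPES and BSA. Forskolin defined 100% stimulation and vehicle 0%.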
# T1 sequence (Q16602 23-461): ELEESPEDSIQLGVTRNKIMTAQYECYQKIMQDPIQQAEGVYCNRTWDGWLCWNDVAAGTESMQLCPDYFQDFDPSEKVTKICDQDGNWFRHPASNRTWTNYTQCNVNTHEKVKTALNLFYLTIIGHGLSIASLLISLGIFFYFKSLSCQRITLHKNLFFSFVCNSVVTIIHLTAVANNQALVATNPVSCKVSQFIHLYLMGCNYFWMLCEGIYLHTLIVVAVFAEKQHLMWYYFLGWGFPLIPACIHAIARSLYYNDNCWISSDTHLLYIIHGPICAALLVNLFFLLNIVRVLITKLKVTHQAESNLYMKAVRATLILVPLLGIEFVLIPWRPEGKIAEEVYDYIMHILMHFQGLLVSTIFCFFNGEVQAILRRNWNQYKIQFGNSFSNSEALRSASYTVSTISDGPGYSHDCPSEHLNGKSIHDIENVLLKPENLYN
# T1 sequence (O60896 24-148): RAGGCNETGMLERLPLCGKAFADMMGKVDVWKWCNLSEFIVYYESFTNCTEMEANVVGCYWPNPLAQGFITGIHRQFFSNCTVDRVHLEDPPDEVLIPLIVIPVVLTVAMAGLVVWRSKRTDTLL
row,SMILES,IC50 [nM]
1,"CCC1(C(=O)N(CC(=O)Nc2ccc3c(c2)C[C@@]2(C3)C(=O)Nc3ncccc32)Cc2ccccc2CNC)CCN(C(=O)C(C)C)CC1 [Example 73, (R)-4-Ethyl-1-isobutyryl-N-(2-((methylamino)methyl)benzyl)-N-(2-oxo-2-((2′-oxo-1,1′,2′,3-tetrahydrospiro[indene-2,3′-pyrrolo[2,3-b]pyridin]-5-yl)amino)ethyl)piperidine-4-carboxamide]",14.1
2,"CCC1(C(=O)N(CC(=O)Nc2ccc3c(c2)C[C@@]2(C3)C(=O)Nc3ncccc32)Cc2ccccc2CNC)CCN(C(=O)COCCOCCOC)CC1 [Example 74, (R)-4-Ethyl-1-(2-(2-(2-methoxyethoxy)ethoxy)acetyl)-N-(2-((methylamino)methyl)benzyl)-N-(2-oxo-2-((2′-oxo-1,1′,2′,3-tetrahydrospiro[indene-2,3′-pyrrolo[2,3-b]pyridin]-5-yl)amino)ethyl)piperidine-4-carboxamide]",8.71
3,"CCC1(C(=O)N(CC(=O)Nc2ccc3c(c2)C[C@@]2(C3)C(=O)Nc3ncccc32)Cc2ccccc2CNC)CCN(C(=O)C2CCCC2)CC1 [Example 75, (R)-1-(Cyclopentanecarbonyl)-4-ethyl-N-(2-((methylamino)methyl)benzyl)-N-(2-oxo-2-((2′-oxo-1,1′,2′,3-tetrahydrospiro[indene-2,3′-pyrrolo[2,3-b]pyridin]-5-yl)amino)ethyl)piperidine-4-carboxamide]",5.75
4,"CCC1(C(=O)N(CC(=O)Nc2ccc3c(c2)C[C@@]2(C3)C(=O)Nc3ncccc32)Cc2ccccc2CNC)CCN(C(=O)c2ccc(F)cn2)CC1 [Example 76, (R)-4-Ethyl-1-(5-fluoropicolinoyl)-N-(2-((methylamino)methyl)benzyl)-N-(2-oxo-2-((2′-oxo-1,1′,2′,3-tetrahydrospiro[indene-2,3′-pyrrolo[2,3-b]pyridin]-5-yl)amino)ethyl)piperidine-4-carboxamide]",37.2
5,"CCC1(C(=O)N(CC(=O)Nc2ccc3c(c2)C[C@@]2(C3)C(=O)Nc3ncccc32)Cc2ccccc2CNC)CCN(C(=O)[C@@H](C)NC)CC1 [Example 77, 4-Ethyl-N-(2-((methylamino)methyl)benzyl)-1-((R)-2-(methylamino)propanoyl)-N-(2-oxo-2-(((R)-2′-oxo-1,1′,2′,3-tetrahydrospiro[indene-2,3′-pyrrolo[2,3-b]pyridin]-5-yl)amino)ethyl)piperidine-4-carboxamide]",24
6,"CCC1(C(=O)N(CC(=O)Nc2ccc3c(c2)C[C@@]2(C3)C(=O)Nc3ncccc32)Cc2ccccc2CNC)CCN(C(=O)c2cccc(C(F)(F)F)n2)CC1 [Example 78, (R)-4-Ethyl-N-(2-((methylamino)methyl)benzyl)-N-(2-oxo-2-((2′-oxo-1,1′,2′,3-tetrahydrospiro[indene-2,3′-pyrrolo[2,3-b]pyridin]-5-yl)amino)ethyl)-1-(6-(trifluoromethyl)picolinoyl)piperidine-4-carboxamide]",112
7,"CCC1(C(=O)N(CC(=O)Nc2ccc3c(c2)C[C@@]2(C3)C(=O)Nc3ncccc32)Cc2ccccc2CNC)CCN(C(=O)[C@@H](N)c2ccccc2)CC1 [Example 79, 1-((S)-2-Amino-2-phenylacetyl)-4-ethyl-N-(2-((methylamino)methyl)benzyl)-N-(2-oxo-2-(((R)-2′-oxo-1,1′,2′,3-tetrahydrospiro[indene-2,3′-pyrrolo[2,3-b]pyridin]-5-yl)amino)ethyl)piperidine-4-carboxamide]",7.41
8,"CCC1(C(=O)N(CC(=O)Nc2ccc3c(c2)C[C@@]2(C3)C(=O)Nc3ncccc32)Cc2ccccc2CNC)CCN(C(=O)[C@H](N)C(C)C)CC1 [Example 80, 1-((R)-2-Amino-3-methylbutanoyl)-4-ethyl-N-(2-((methylamino)methyl)benzyl)-N-(2-oxo-2-(((R)-2′-oxo-1,1′,2′,3-tetrahydrospiro[indene-2,3′-pyrrolo[2,3-b]pyridin]-5-yl)amino)ethyl)piperidine-4-carboxamide]",57.5
9,"CCC1(C(=O)N(CC(=O)Nc2ccc3c(c2)C[C@@]2(C3)C(=O)Nc3ncccc32)Cc2ccccc2CNC)CCN(C(=O)[C@H](N)c2ccccc2)CC1 [Example 81, 1-((R)-2-Amino-2-phenylacetyl)-4-ethyl-N-(2-((methylamino)methyl)benzyl)-N-(2-oxo-2-(((R)-2′-oxo-1,1′,2′,3-tetrahydrospiro[indene-2,3′-pyrrolo[2,3-b]pyridin]-5-yl)amino)ethyl)piperidine-4-carboxamide]",2.34
10,"CCC1(C(=O)N(CC(=O)Nc2ccc3c(c2)C[C@@]2(C3)C(=O)Nc3ncccc32)Cc2ccccc2CNC)CCN(C(=O)[C@@H](N)C(C)C)CC1 [Example 82, 1-((S)-2-Amino-3-methylbutanoyl)-4-ethyl-N-(2-((methylamino)methyl)benzyl)-N-(2-oxo-2-(((R)-2′-oxo-1,1′,2′,3-tetrahydrospiro[indene-2,3′-pyrrolo[2,3-b]pyridin]-5-yl)amino)ethyl)piperidine-4-carboxamide]",8.32

# The next lines start with the values.
row,IC50 [nM],SMILES
1,56.2,"CCC1(C(=O)N(CC(=O)Nc2ccc3c(c2)C[C@@]2(C3)C(=O)Nc3ncccc32)Cc2ccccc2CNC)CCN(C(=O)[C@H]2COCCN2)CC1 [Example 83, 4-Ethyl-N-(2-((methylamino)methyl)benzyl)-1-((R)-morpholine-3-carbonyl)-N-(2-oxo-2-(((R)-2′-oxo-1,1′,2′,3-tetrahydrospiro[indene-2,3′-pyrrolo[2,3-b]pyridin]-5-yl)amino)ethyl)piperidine-4-carboxamide]"
2,3.55,"CCC1(C(=O)N(CC(=O)Nc2ccc3c(c2)C[C@@]2(C3)C(=O)Nc3ncccc32)Cc2ccccc2CNC)CCN(C(=O)c2ccn[nH]2)CC1 [Example 84, (R)-4-Ethyl-N-(2-((methylamino)methyl)benzyl)-N-(2-oxo-2-((2′-oxo-1,1′,2′,3-tetrahydrospiro[indene-2,3′-pyrrolo[2,3-b]pyridin]-5-yl)amino)ethyl)-1-(1H-pyrazole-5-carbonyl)piperidine-4-carboxamide]"
3,3.8,"CCC1(C(=O)N(CC(=O)Nc2ccc3c(c2)C[C@@]2(C3)C(=O)Nc3ncccc32)Cc2ccccc2CNC)CCN(C(=O)c2cn[nH]c2)CC1 [Example 85, (R)-4-Ethyl-N-(2-((methylamino)methyl)benzyl)-N-(2-oxo-2-((2′-oxo-1,1′,2′,3-tetrahydrospiro[indene-2,3′-pyrrolo[2,3-b]pyridin]-5-yl)amino)ethyl)-1-(1H-pyrazole-4-carbonyl)piperidine-4-carboxamide]"
4,1.26,"CCC1(C(=O)N(CC(=O)Nc2ccc3c(c2)C[C@@]2(C3)C(=O)Nc3ncccc32)Cc2ccccc2CNC)CCN(C(=O)c2cncs2)CC1 [Example 86, (R)-4-Ethyl-N-(2-((methylamino)methyl)benzyl)-N-(2-oxo-2-((2′-oxo-1,1′,2′,3-tetrahydrospiro[indene-2,3′-pyrrolo[2,3-b]pyridin]-5-yl)amino)ethyl)-1-(thiazole-5-carbonyl)piperidine-4-carboxamide]"
5,2.19,CCC1(C(=O)N(CC(=O)Nc2ccc3c(c2)C[C@@]2(C3)C(=O)Nc3ncccc32)Cc2ccccc2CNC)CCN(C(=O)C23CC(C2)C3)CC1 [Example 87]
6,2.45,"CCC1(C(=O)N(CC(=O)Nc2ccc3c(c2)C[C@@]2(C3)C(=O)Nc3ncccc32)Cc2ccccc2CNC)CCN(C(=O)C(C)(C)F)CC1 [Example 88, (R)-4-Ethyl-1-(2-fluoro-2-methylpropanoyl)-N-(2-((methylamino)methyl)benzyl)-N-(2-oxo-2-((2′-oxo-1,1′,2′,3-tetrahydrospiro[indene-2,3′-pyrrolo[2,3-b]pyridin]-5-yl)amino)ethyl)piperidine-4-carboxamide]"
7,5.5,"CCC1(C(=O)N(CC(=O)Nc2ccc3c(c2)C[C@@]2(C3)C(=O)Nc3ncccc32)Cc2ccccc2CNC)CCN(C(=O)C2CCC2)CC1 [Example 89, (R)-1-(Cyclobutanecarbonyl)-4-ethyl-N-(2-((methylamino)methyl)benzyl)-N-(2-oxo-2-((2′-oxo-1,1′,2′,3-tetrahydrospiro[indene-2,3′-pyrrolo[2,3-b]pyridin]-5-yl)amino)ethyl)piperidine-4-carboxamide]"
8,22.9,"CCC1(C(=O)N(CC(=O)Nc2ccc3c(c2)C[C@@]2(C3)C(=O)Nc3ncccc32)Cc2ccccc2CNC)CCN(C(=O)CN2CCOCC2)CC1 [Example 90, (R)-4-Ethyl-N-(2-((methylamino)methyl)benzyl)-1-(2-morpholinoacetyl)-N-(2-oxo-2-((2′-oxo-1,1′,2′,3-tetrahydrospiro[indene-2,3′-pyrrolo[2,3-b]pyridin]-5-yl)amino)ethyl)piperidine-4-carboxamide]"
9,34.7,"CCC1(C(=O)N(CC(=O)Nc2ccc3c(c2)C[C@@]2(C3)C(=O)Nc3ncccc32)Cc2ccccc2CNC)CCN(C(=O)c2cc(C(C)(C)C)n[nH]2)CC1 [Example 91, (R)-1-(3-(tert-Butyl)-1H-pyrazole-5-carbonyl)-4-ethyl-N-(2-((methylamino)methyl)benzyl)-N-(2-oxo-2-((2′-oxo-1,1′,2′,3-tetrahydrospiro[indene-2,3′-pyrrolo[2,3-b]pyridin]-5-yl)amino)ethyl)piperidine-4-carboxamide]"
10,13.2,"CCC1(C(=O)N(CC(=O)Nc2ccc3c(c2)C[C@@]2(C3)C(=O)Nc3ncccc32)Cc2ccccc2CNC)CCN(C(=O)c2cc(C(C)(C)C)nn2C)CC1 [Example 92, (R)-1-(3-(tert-Butyl)-1-methyl-1H-pyrazole-5-carbonyl)-4-ethyl-N-(2-((methylamino)methyl)benzyl)-N-(2-oxo-2-((2′-oxo-1,1′,2′,3-tetrahydrospiro[indene-2,3′-pyrrolo[2,3-b]pyridin]-5-yl)amino)ethyl)piperidine-4-carboxamide]"
